Data set [1] has as its system mouse embryonic fibroblasts (MEFs). Nature of the data set: qRT-PCR of pancreatic lineage markers during three-stage direct reprogramming of MEFs. It is filed as cell-based. To be noted: stage-1 cells, single miRNA transfected, relative to the mimic (FIG. 2a). The procedure: (§1) MEFs (5×10^4 cells/well per 12-well plate) were transfected using the jetMESSENGER (Polyplus-Transfection, Illkirch, France) reagent according to the manufacturer's instructions. The miRNA to be infected (200 nM) (QIAGEN, Hilden, Germany) was diluted in mRNA buffer and 2 μL of the jetMESSENGER reagent was added thereto. The mixture was incubated at room temperature for 20 minutes and then added to MEFs, and 24 hours thereafter, a stage-specific medium was added thereto.
For direct reprogramming of cells, knockout DMEM (KO-DMEM) (Gibco) was used as a basal medium. The knockout DMEM includes 15% knockout serum replacement (Gibco, Thermo Fisher Scientific, Inc., Waltham, MA, USA), 5% FBS (exosome depleted), 1% GlutaMax (Gibco, Thermo Fisher Scientific, Inc., Waltham, MA, USA), 1% Non-Essential Amino Acids (NEAA, Gibco, Thermo Fisher Scientific, Inc., Waltham, MA, USA), and 0.5 mM β-ME (Sigma Aldrich, Inc., Saint Louis, MO, USA).
The three-stage differentiation protocol of the present disclosure is as follows: Stage 1, differentiation from MEFs into pancreatic endoderm cells; Stage 2, differentiation of pancreatic endoderm cells into pancreatic progenitor-like cells; Stage 3, differentiation from pancreatic progenitor-like cells into beta-cell-like cells.
First, 5×10^4 MEF cells/well were seeded in a 12-well tissue culture plate of DMEM containing 10% FBS and 1×P/S for one day. The next day, a Stage 1 differentiation medium was added thereto. The Stage 1 differentiation medium contains 1 μM Bix-01294 (MedchemExpress, Monmouth Junction, NJ, USA), 280 μM 2-phospho-L-ascorbic acid (pVC) Sigma Aldrich, Inc., Saint Louis, MO, USA), and 50 ng/mL activin A (R&D Systems, Minneapolis, MI, USA). After addition of the medium, cells were maintained for 6 days. The medium used was replaced every 3 days. After 6 days, a Stage 2 differentiation medium was added for 4 days. […]
Statistical significance was determined by a two-way, paired student's t-test. […]
For orientation: Quantitative PCR measures a nucleic acid by following its amplification.

The subject of data set [2] is mouse embryonic fibroblasts (MEF). In words: Proliferation / morphology of MEFs by bright field microscopy in stage-1 differentiation. It is filed as cell-based. As to conditions: after 48 hours (FIG. 3c). The procedure:
FIGS. 3a to 3c confirm the proliferative ability of mouse embryonic fibroblasts (MEF) following transfection with a miRNA mimic and combinations of miRNAs (miR-127, miR-709, and miR-19b) of the present disclosure.
as §1

With “miR-19b: microRNA, SEQ ID NO: 5, ugugcaaauccaugcaaaacuga (UGUGCAAAUCCAUGCAAAACUGA; listed as RNA, chemistry not given here)”, the “induction of Pdx1 expression” value in data set [1] came out at 1.6 fold. Further, the cell proliferation entry in data set [2] is listed as “highest cell proliferation”.
In the case of “miR-127: microRNA, SEQ ID NO: 1, CUGAAGCUCAGAGGGCUCUGAU”, the “induction of Pdx1 expression” value in data set [1] is 3.9 fold.
Consider “miR-709: microRNA, SEQ ID NO: 2, GGAGGCAGAGGCAGGAGGA (listed as RNA, chemistry not given here)”, for which the “induction of Pdx1 expression” value in data set [1] came to 3.2 fold.

Source of the values: patent US20230364153A1, “METHOD FOR DIRECT REPROGRAMMING FROM SOMATIC CELLS INTO PANCREATIC BETA CELLS BY USING MICRORNA, AND DIFFERENTIATION COMPOSITION” (Research & Business Foundation Sungkyunkwan University, priority 2020, published 2023).
